Assay results from ChEMBL document CHEMBL4613208, “Isatin derivatives and their anti-bacterial activities” (Eur J Med Chem, 2019).

What was measured:
Staphylococcus aureus [1] = test: Antibacterial activity against Staphylococcus aureus ATCC 25923 after 24 hrs by agar well diffusion technique; type: functional; conditions: ATCC 25923, 24 h
Bacillus cereus = test: Antibacterial activity against Bacillus cereus after 24 hrs by agar well diffusion technique; type: functional
Escherichia coli [2] = test: Antibacterial activity against Escherichia coli ATCC 25922 after 24 hrs by agar well diffusion technique; type: functional; conditions: ATCC 25922, 24 h
Shigella dysenteriae [3] = test: Antibacterial activity against Shigella dysenteriae after 24 hrs by agar well diffusion technique; type: functional
Escherichia coli [4] = test: Antibacterial activity against Escherichia coli assessed as zone of inhibition at 20 mg/ml; type: functional; conditions: read-out: IZ
Pseudomonas aeruginosa [5] = test: Antibacterial activity against Pseudomonas aeruginosa assessed as zone of inhibition at 20 mg/ml; type: functional; conditions: read-out: IZ
Staphylococcus aureus [6] = test: Antibacterial activity against Staphylococcus aureus assessed as zone of inhibition at 20 mg/ml; type: functional; conditions: read-out: IZ
Bacillus subtilis [7] = test: Antibacterial activity against Bacillus subtilis assessed as zone of inhibition at 20 mg/ml; type: functional; conditions: read-out: IZ
Staphylococcus aureus [8] = test: Antibacterial activity against Staphylococcus aureus; type: functional, organism-based
Klebsiella pneumoniae [9] = test: Antibacterial activity against Klebsiella pneumoniae; type: functional
Shigella flexneri = test: Antibacterial activity against Shigella flexneri; type: functional
Escherichia coli [10] = test: Antibacterial activity against Escherichia coli; type: functional, organism-based
Pseudomonas aeruginosa [11] = test: Antibacterial activity against Pseudomonas aeruginosa; type: functional, organism-based
Salmonella typhi = test: Antibacterial activity against Salmonella typhi; type: functional, Salmonella enterica subsp. enterica serovar Typhi; conditions: Salmonella enterica
Vibrio cholerae = test: Antibacterial activity against Vibrio cholerae; type: functional
[12] = tested on: Staphylococcus epidermidis; test: Antibacterial activity against Staphylococcus epidermidis; type: functional
Citrobacter freundii = test: Antibacterial activity against Citrobacter freundii; type: functional
Streptococcus pyogenes = test: Antibacterial activity against Streptococcus pyogenes; type: functional
Bacillus subtilis [13] = test: Antibacterial activity against Bacillus subtilis; type: functional
Proteus vulgaris = test: Antibacterial activity against Proteus vulgaris; type: functional
Bacillus pumilus = test: Antibacterial activity against Bacillus pumilus; type: functional
Priestia megaterium = test: Antibacterial activity against Bacillus megaterium; type: functional
Staphylococcus aureus [14] = test: Antibacterial activity against Staphylococcus aureus after 24 hrs by paper disc diffusion technique; type: functional; conditions: Staphylococcus aureus, 24 h; read-out: MIC
[15] = tested on: Staphylococcus epidermidis; test: Antibacterial activity against Staphylococcus epidermidis after 24 hrs by paper disc diffusion technique; type: functional; conditions: Staphylococcus epidermidis, 24 h
Escherichia coli [16] = test: Antibacterial activity against Escherichia coli after 24 hrs by paper disc diffusion technique; type: functional; conditions: Escherichia coli, 24 h; read-out: MIC
Pseudomonas aeruginosa [17] = test: Antibacterial activity against Pseudomonas aeruginosa after 24 hrs by paper disc diffusion technique; type: functional; conditions: Pseudomonas aeruginosa, 24 h; read-out: MIC
Klebsiella pneumoniae [18] = test: Antibacterial activity against Klebsiella pneumoniae after 24 hrs by paper disc diffusion technique; type: functional; conditions: Klebsiella pneumoniae, 24 h; read-out: MIC
Micrococcus luteus = test: Antibacterial activity against Micrococcus luteus after 24 hrs by paper disc diffusion technique; type: functional; conditions: Micrococcus luteus, 24 h
Escherichia coli [19] = test: In vivo antibacterial activity against Escherichia coli infected in po dosed mouse; type: functional
Escherichia coli [20] = test: Potency index, ratio of ED50 for norfloxacin to ED50 for test compound for in vivo antibacterial activity against Escherichia coli infected in po dosed mouse; type: functional
[21] = Toxicity in po dosed mouse; type: organism-based; conditions: in vivo
Escherichia coli [22] = test: Antibacterial activity against Escherichia coli NCTC 10418; type: functional
Shigella dysenteriae [23] = test: Potency index, ratio of MIC for sulfamethoxazole to MIC for test compound for antibacterial activity against Shigella dysenteriae after 24 hrs by agar well diffusion technique; type: functional

Cc1cc(NS(=O)(=O)c2ccc(/N=C3\C(=O)Nc4ccc(Cl)cc43)cc2)no1
1 to 15 µg/mL: MIC (Staphylococcus aureus [1]) | MIC (Bacillus cereus) | MIC (Escherichia coli [2]) | MIC (Shigella dysenteriae [3])

CCOC(=O)c1c(NC(C)(C)C)oc(N(C(=O)CN2C(=O)/C(=C3/C(=O)N(CO)c4ccccc43)SC2=S)C(C)(C)C)c1C(=O)OCC
15.6 to 26 mm: zone of inhibition at 20000 µg/mL (Escherichia coli [4]) | zone of inhibition at 20000 µg/mL (Pseudomonas aeruginosa [5]) | zone of inhibition at 20000 µg/mL (Staphylococcus aureus [6]) | zone of inhibition at 20000 µg/mL (Bacillus subtilis [7])

CCn1cc(C(=O)O)c(=O)c2cc(F)c(N3CCNC(C)C3)c(F)c21 (centres undefined) [LOMEFLOXACIN]
0.25 to 2.5 µg/mL: MIC (Staphylococcus aureus [8]) | MIC (Klebsiella pneumoniae [9]) | MIC (Shigella flexneri) | MIC (Escherichia coli [10]) | MIC (Pseudomonas aeruginosa [11]) | MIC (Salmonella typhi) | MIC (Vibrio cholerae) | MIC [12] | MIC (Citrobacter freundii)

COC(=O)c1c(NC(C)(C)C)oc(N(C(=O)CN2C(=O)/C(=C3/C(=O)N(CC(=O)N(c4oc(NC(C)(C)C)c(C(=O)OC(C)(C)C)c4C(=O)OC(C)(C)C)C(C)(C)C)c4ccccc43)SC2=S)C(C)(C)C)c1C(=O)OC
15.6 to 26 mm: zone of inhibition at 20000 µg/mL (Escherichia coli [4]) | zone of inhibition at 20000 µg/mL (Pseudomonas aeruginosa [5]) | zone of inhibition at 20000 µg/mL (Staphylococcus aureus [6]) | zone of inhibition at 20000 µg/mL (Bacillus subtilis [7])

Cc1ccc2c(c1)/C(=N/c1nc3ccccc3[nH]1)C(=O)N2
1 to 15 µg/mL: MIC (Staphylococcus aureus [1]) | MIC (Bacillus cereus) | MIC (Escherichia coli [2]) | MIC (Shigella dysenteriae [3])

CC1S/C(=N/N=C2\C(=O)Nc3ccc(S(=O)(=O)N4CCOCC4)cc32)N(c2ccccc2)C1=O (centres undefined)
0.03 to 3.9 µg/mL: MIC (Staphylococcus aureus [8]) | MIC (Streptococcus pyogenes) | MIC (Bacillus subtilis [13]) | MIC (Proteus vulgaris) | MIC (Klebsiella pneumoniae [9]) | MIC (Shigella flexneri)

CC(C)(C)Nc1oc(N(C(=O)CN2C(=O)C(=O)c3ccccc32)C(C)(C)C)c(C(=O)OC(C)(C)C)c1C(=O)OC(C)(C)C
15.6 to 26 mm: zone of inhibition at 20000 µg/mL (Escherichia coli [4]) | zone of inhibition at 20000 µg/mL (Pseudomonas aeruginosa [5]) | zone of inhibition at 20000 µg/mL (Staphylococcus aureus [6]) | zone of inhibition at 20000 µg/mL (Bacillus subtilis [7])

[N-]=[N+]=Nc1ccc(C2=NN(C(=O)CN3C(=O)C(=O)c4ccccc43)C(c3ccc(F)cc3)C2)cc1 (centres undefined)
6.25 to 50 µg/mL: MIC (Staphylococcus aureus [8]) | MIC (Bacillus subtilis [13]) | MIC (Escherichia coli [10]) | MIC (Pseudomonas aeruginosa [11])

O=C1C(=O)N(CN2CCN(c3cc4c(cc3F)c(=O)c(C(=O)O)cn4C3CC3)CC2)c2ccccc21
0.1 to 0.5 µg/mL: MIC (Staphylococcus aureus [8]) | MIC (Klebsiella pneumoniae [9]) | MIC (Shigella flexneri) | MIC (Escherichia coli [10]) | MIC (Pseudomonas aeruginosa [11]) | MIC (Salmonella typhi) | MIC (Vibrio cholerae) | MIC [12] | MIC (Citrobacter freundii)

N[C@@H](C(=O)N[C@@H]1C(=O)N2C(C(=O)O)=C(Cl)CS[C@H]12)c1ccccc1 [CEFACLOR ANHYDROUS]
2 to 8 µg/mL: MIC (Staphylococcus aureus [8]) | MIC (Pseudomonas aeruginosa [11]) | MIC [12] | MIC (Bacillus pumilus) | MIC (Priestia megaterium)

CCOC(=O)CN1C(=O)/C(=C2\SC(=S)N(CC(=O)N(c3oc(NC(C)(C)C)c(C(=O)OCC)c3C(=O)OCC)C(C)(C)C)C2=O)c2ccccc21
15.6 to 26 mm: zone of inhibition at 20000 µg/mL (Escherichia coli [4]) | zone of inhibition at 20000 µg/mL (Pseudomonas aeruginosa [5]) | zone of inhibition at 20000 µg/mL (Staphylococcus aureus [6]) | zone of inhibition at 20000 µg/mL (Bacillus subtilis [7])

CCOC(=O)CN1C(=O)/C(=C2\SC(=S)N(CC(=O)N(c3oc(NC(C)(C)C)c(C(=O)OC)c3C(=O)OC)C(C)(C)C)C2=O)c2cc(Cl)ccc21
15.6 to 26 mm: zone of inhibition at 20000 µg/mL (Escherichia coli [4]) | zone of inhibition at 20000 µg/mL (Pseudomonas aeruginosa [5]) | zone of inhibition at 20000 µg/mL (Staphylococcus aureus [6]) | zone of inhibition at 20000 µg/mL (Bacillus subtilis [7])

O=C(O)c1cn(C2CC2)c2cc(N3CCNCC3)c(F)cc2c1=O [CIPROFLOXACIN]
3.9 to 15.6 µg/mL: MIC (Staphylococcus aureus [14]) | MIC [15] | MIC (Escherichia coli [16]) | MIC (Pseudomonas aeruginosa [17]) | MIC (Klebsiella pneumoniae [18]) | MIC (Micrococcus luteus)
2 nM: MIC (Salmonella typhi)
< 5 µg/mL: MIC (Staphylococcus aureus [8]) | MIC (Bacillus subtilis [13]) | MIC (Escherichia coli [10]) | MIC (Pseudomonas aeruginosa [11])

CCn1cc(C(=O)O)c(=O)c2cc(F)c(N3CCN(CN4C(=O)/C(=N\c5ccc(S(=O)(=O)Nc6ncnc(OC)c6OC)cc5)c5ccccc54)CC3)cc21
> 4000 mg/kg: LD50 [21]
>3.7: Ratio ED50 (Escherichia coli [20])
< 1 µg/mL: MIC (Escherichia coli [22])
1.25 mg/kg: ED50 (Escherichia coli [19])

O=C1Nc2ccc(S(=O)(=O)N3CCOCC3)cc2C1=O
0.007 to 0.49 µg/mL: MIC (Staphylococcus aureus [8]) | MIC (Streptococcus pyogenes) | MIC (Bacillus subtilis [13]) | MIC (Proteus vulgaris) | MIC (Klebsiella pneumoniae [9]) | MIC (Shigella flexneri)

Cc1ccc2c(c1)/C(=N/c1ccc(S(=O)(=O)Nc3cc(C)on3)cc1)C(=O)N2
1 µg/mL: MIC (Shigella dysenteriae [3])
5 µg/mL: MIC (Staphylococcus aureus [1]) | MIC (Bacillus cereus) | MIC (Escherichia coli [2])
2.5: Ratio (Shigella dysenteriae [23])

Cc1ccc2c(c1)C(=O)C(=O)N2CN1CCN(c2cc3c(cc2F)c(=O)c(C(=O)O)cn3C2CC2)CC1
0.1 to 0.5 µg/mL: MIC (Staphylococcus aureus [8]) | MIC (Klebsiella pneumoniae [9]) | MIC (Shigella flexneri) | MIC (Escherichia coli [10]) | MIC (Pseudomonas aeruginosa [11]) | MIC (Salmonella typhi) | MIC (Vibrio cholerae) | MIC [12] | MIC (Citrobacter freundii)

CCn1cc(C(=O)O)c(=O)c2cc(F)c(N3CCNCC3)cc21 [NORFLOXACIN]
6 mg/kg: ED50 (Escherichia coli [19])

CC(=O)NC[C@H]1CN(c2ccc(N3CCOCC3)c(F)c2)C(=O)O1 [LINEZOLID]
4 to 8 µg/mL: MIC (Staphylococcus aureus [8]) | MIC (Pseudomonas aeruginosa [11]) | MIC [12] | MIC (Bacillus pumilus) | MIC (Priestia megaterium)

COc1cc(/C=N/N2C(N)=NNC23C(=O)Nc2ccc(C)cc23)ccc1O (centres undefined)
1 to 15 µg/mL: MIC (Staphylococcus aureus [1]) | MIC (Bacillus cereus) | MIC (Escherichia coli [2]) | MIC (Shigella dysenteriae [3])

CCn1cc(C(=O)O)c(=O)c2cc(F)c(N3CCN(CN4C(=O)/C(=N\c5ncc(Cc6cc(OC)c(OC)c(OC)c6)c(N)n5)c5cc(Br)ccc54)CC3)cc21
< 1 µg/mL: MIC (Escherichia coli [22])
>3.7: Ratio ED50 (Escherichia coli [20])

CC1(C)S[C@@H]2[C@H](NC(=O)[C@H](N)c3ccccc3)C(=O)N2[C@H]1C(=O)O [AMPICILLIN]
0.007 to 1.95 µg/mL: MIC (Staphylococcus aureus [8]) | MIC (Streptococcus pyogenes) | MIC (Bacillus subtilis [13]) | MIC (Proteus vulgaris) | MIC (Klebsiella pneumoniae [9]) | MIC (Shigella flexneri)
